Two compounds from ChEMBL document CHEMBL4507319 (2021) can be followed below.

The target in experiment [1] is Beta-3 adrenergic receptor (Homo sapiens) (UniProt P13945). The following applies: Compound concentration 10.0 uM.
Experiment [2] deals with GABA-A receptor; anion channel (Rattus norvegicus) (UniProt O09028+P15431+P18506+P18508+P19969+P20236+P23574+P23576+P28471+P28473+P30191+P62813+P63079+P63138+Q91ZM7+Q9ES14). The following applies: Compound concentration 10.0 uM.
For experiment [3], the target named is Calcium/calmodulin-dependent protein kinase type II subunit beta (Homo sapiens) (UniProt Q13554). Nature of the experiment: CaMKIIbeta(h) Eurofins kinase panel. To be noted: Compound concentration 1.0 uM.
Experiment [4] has as its target Cyclin-dependent kinase 2/cyclin E (Homo sapiens) (UniProt P24864+P24941+O96020). Nature of the experiment: CDK2/cyclinE(h) Eurofins kinase panel. The format is protein-complex assay. To be noted: Compound concentration 1.0 uM.
The target in experiment [5] is T1, Myotonin-protein kinase (Homo sapiens) (UniProt Q09013).
T1 sequence (whole entry): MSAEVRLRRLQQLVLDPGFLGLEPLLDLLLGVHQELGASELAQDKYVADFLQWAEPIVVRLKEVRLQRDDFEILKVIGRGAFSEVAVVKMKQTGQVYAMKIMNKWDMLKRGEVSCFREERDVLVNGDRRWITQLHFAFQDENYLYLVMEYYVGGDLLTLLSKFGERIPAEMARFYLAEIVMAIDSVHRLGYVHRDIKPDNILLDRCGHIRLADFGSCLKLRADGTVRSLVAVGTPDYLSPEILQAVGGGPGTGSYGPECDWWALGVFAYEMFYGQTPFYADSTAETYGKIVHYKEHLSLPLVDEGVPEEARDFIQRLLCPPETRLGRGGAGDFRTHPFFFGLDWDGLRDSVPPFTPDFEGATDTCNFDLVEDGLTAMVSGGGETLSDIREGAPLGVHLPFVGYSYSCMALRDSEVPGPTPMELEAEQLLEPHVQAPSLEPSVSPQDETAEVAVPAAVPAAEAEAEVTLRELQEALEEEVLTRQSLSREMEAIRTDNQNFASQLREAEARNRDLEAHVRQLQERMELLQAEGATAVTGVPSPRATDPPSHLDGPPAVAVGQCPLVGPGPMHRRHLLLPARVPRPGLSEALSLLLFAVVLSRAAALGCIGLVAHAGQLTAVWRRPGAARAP
Nature of the experiment: DMPK(h) Eurofins kinase panel. To be noted: Compound concentration 1.0 uM.

For experiment [6], the target named is G protein-coupled receptor kinase 6 (Homo sapiens) (UniProt P43250). In words: GRK6(h) Eurofins kinase panel. The following applies: Compound concentration 1.0 uM.
Experiment [7] has as its target Tyrosine-protein kinase HCK (Homo sapiens) (UniProt P08631). Nature of the experiment: Hck(h) Eurofins kinase panel. The following applies: Compound concentration 1.0 uM.
Experiment [8] addresses Homeodomain-interacting protein kinase 3 (Homo sapiens) (UniProt Q9H422). Nature of the experiment: HIPK3(h) Eurofins kinase panel. The following applies: Compound concentration 1.0 uM.
Experiment [9] concerns the target Eukaryotic translation initiation factor 2-alpha kinase 1 (Homo sapiens) (UniProt Q9BQI3). In words: HRI(h) Eurofins kinase panel. To be noted: Compound concentration 1.0 uM.
The target of experiment [10] is Mitogen-activated protein kinase kinase kinase kinase 5 (Homo sapiens) (UniProt Q9Y4K4). In words: MAP4K5(h) Eurofins kinase panel. To be noted: Compound concentration 1.0 uM.
Experiment [11] addresses T2, Mitogen-activated protein kinase kinase kinase 2 (Homo sapiens) (UniProt Q9Y2U5).
T2 sequence (whole entry): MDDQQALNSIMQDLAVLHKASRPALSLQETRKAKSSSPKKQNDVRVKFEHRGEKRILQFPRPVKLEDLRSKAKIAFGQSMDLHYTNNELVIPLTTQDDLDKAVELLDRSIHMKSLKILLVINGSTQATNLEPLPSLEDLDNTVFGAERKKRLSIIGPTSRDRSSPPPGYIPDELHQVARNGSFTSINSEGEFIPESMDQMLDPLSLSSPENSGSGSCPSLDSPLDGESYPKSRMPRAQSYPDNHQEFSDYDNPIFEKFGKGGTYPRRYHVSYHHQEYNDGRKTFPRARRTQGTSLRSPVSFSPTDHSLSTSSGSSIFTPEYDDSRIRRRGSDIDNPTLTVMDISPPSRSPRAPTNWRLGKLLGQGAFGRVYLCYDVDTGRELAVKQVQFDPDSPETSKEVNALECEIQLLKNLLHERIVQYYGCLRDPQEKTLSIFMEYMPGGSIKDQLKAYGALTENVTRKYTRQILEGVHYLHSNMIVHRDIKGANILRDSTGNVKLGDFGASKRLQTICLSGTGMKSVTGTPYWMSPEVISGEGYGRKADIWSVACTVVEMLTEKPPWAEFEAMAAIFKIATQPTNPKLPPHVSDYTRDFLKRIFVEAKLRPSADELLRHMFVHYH
In words: MEKK2(h) Eurofins kinase panel. To be noted: Compound concentration 1.0 uM.

In experiment [12] the target is SRSF protein kinase 3 (Homo sapiens) (UniProt Q9UPE1). Nature of the experiment: MSSK1(h) Eurofins kinase panel. To be noted: Compound concentration 1.0 uM.
For experiment [13], the target named is Protein kinase C beta type (Homo sapiens) (UniProt P05771). In words: PKCbetaI (h) Eurofins kinase panel. The following applies: Compound concentration 1.0 uM.
The target in experiment [14] is Serine/threonine-protein kinase PRP4 homolog (Homo sapiens) (UniProt Q13523). Nature of the experiment: PRP4(h) Eurofins kinase panel. To be noted: Compound concentration 1.0 uM.
The target in experiment [15] is Receptor-interacting serine/threonine-protein kinase 2 (Homo sapiens) (UniProt O43353). In words: RIPK2(h) Eurofins kinase panel. To be noted: Compound concentration 1.0 uM.
Experiment [16] addresses T3, Serine/threonine-protein kinase TBK1 (Homo sapiens) (UniProt Q9UHD2).
T3 sequence (whole entry): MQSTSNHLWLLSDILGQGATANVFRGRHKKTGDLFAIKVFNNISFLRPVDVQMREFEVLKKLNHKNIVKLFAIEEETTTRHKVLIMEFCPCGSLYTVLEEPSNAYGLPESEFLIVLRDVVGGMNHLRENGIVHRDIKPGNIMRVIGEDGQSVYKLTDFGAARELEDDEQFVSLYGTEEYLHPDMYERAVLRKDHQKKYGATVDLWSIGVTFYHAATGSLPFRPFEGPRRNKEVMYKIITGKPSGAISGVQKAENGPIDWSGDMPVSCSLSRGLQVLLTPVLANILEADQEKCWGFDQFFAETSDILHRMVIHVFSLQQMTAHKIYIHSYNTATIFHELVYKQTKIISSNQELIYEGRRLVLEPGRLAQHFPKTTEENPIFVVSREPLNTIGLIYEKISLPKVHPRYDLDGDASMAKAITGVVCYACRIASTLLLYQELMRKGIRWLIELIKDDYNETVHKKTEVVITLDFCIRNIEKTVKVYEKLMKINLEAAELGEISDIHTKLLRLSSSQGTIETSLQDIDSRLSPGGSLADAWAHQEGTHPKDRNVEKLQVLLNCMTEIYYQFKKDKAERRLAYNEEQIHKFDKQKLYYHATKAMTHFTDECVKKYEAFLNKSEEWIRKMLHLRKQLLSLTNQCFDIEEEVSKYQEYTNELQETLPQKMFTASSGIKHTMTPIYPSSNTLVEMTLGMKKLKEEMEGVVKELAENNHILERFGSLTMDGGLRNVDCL
In words: TBK1(h) Eurofins kinase panel. The following applies: Compound concentration 1.0 uM.

The next experiment relates to Ramos. Nature of the experiment: Ramos cell line Proliferation assay. It is filed as functional, Homo sapiens. The following applies: time 3 day.
In a further experiment the test system is Daudi. Nature of the experiment: Daudi cell line Proliferation assay. The format is functional, Homo sapiens. The following applies: time 3 day.
In the next experiment the test system is A2780. In words: A2780 cell line Proliferation assay. It is filed as functional, Homo sapiens. The following applies: time 3 day.
Another experiment relates to PANC-1. In words: PANC-1 cell line Proliferation assay. It is filed as functional, Homo sapiens. To be noted: time 3 day.

Broadly, the inhibition is the relative decrease from the control value, in per cent.

Bounds are passed on as bounds.

G protein-coupled receptor kinase 6 (Homo sapiens), sequence (P43250 whole entry, looked up): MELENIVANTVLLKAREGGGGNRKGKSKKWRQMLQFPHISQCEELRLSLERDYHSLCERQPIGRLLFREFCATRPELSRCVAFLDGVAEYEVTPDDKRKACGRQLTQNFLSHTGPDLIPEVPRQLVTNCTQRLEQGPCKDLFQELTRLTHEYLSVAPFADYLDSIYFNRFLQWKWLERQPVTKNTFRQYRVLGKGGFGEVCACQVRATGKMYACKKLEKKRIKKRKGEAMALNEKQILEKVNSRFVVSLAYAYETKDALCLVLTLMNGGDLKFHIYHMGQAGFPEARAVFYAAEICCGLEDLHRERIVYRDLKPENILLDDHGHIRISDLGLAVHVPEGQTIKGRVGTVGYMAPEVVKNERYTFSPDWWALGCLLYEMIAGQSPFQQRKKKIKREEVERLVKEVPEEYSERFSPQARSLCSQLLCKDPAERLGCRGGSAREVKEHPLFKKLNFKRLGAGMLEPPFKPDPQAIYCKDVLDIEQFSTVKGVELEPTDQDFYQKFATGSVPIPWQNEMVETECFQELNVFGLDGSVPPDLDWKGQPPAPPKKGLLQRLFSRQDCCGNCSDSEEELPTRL
Tyrosine-protein kinase HCK (Homo sapiens), sequence (P08631 2-526 limits assumed): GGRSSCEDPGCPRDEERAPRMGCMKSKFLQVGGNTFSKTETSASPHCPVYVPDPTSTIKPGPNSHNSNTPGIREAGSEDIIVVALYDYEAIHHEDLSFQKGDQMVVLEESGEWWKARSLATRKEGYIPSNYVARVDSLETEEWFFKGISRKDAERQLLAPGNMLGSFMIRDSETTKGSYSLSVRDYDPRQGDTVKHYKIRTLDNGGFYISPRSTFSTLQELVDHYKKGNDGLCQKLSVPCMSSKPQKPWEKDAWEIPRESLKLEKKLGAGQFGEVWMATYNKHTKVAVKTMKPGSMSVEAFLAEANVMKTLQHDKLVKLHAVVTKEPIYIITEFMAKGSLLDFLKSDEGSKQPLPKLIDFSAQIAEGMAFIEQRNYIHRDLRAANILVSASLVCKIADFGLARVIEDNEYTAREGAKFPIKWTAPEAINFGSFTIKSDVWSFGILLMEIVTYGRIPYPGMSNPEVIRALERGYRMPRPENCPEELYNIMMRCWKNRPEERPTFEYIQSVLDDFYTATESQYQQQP
Eukaryotic translation initiation factor 2-alpha kinase 1 (Homo sapiens), sequence (Q9BQI3 whole entry): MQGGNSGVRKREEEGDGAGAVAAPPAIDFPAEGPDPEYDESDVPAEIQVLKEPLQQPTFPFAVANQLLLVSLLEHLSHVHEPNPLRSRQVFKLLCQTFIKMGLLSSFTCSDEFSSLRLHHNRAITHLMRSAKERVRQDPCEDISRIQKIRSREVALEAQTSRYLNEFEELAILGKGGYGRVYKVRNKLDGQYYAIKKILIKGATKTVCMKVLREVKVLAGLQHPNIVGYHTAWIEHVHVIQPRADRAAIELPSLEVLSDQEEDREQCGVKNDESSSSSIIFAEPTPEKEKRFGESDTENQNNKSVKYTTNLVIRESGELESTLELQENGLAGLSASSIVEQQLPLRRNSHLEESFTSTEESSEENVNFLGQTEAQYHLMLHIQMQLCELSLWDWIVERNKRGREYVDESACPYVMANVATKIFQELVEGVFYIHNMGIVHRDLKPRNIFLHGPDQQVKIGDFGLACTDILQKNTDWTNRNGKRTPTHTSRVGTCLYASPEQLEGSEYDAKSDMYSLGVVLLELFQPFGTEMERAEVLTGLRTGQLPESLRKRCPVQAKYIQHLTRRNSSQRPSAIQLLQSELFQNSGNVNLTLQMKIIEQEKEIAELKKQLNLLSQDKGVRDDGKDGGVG
Homeodomain-interacting protein kinase 3 (Homo sapiens), sequence (Q9H422 whole entry, looked up): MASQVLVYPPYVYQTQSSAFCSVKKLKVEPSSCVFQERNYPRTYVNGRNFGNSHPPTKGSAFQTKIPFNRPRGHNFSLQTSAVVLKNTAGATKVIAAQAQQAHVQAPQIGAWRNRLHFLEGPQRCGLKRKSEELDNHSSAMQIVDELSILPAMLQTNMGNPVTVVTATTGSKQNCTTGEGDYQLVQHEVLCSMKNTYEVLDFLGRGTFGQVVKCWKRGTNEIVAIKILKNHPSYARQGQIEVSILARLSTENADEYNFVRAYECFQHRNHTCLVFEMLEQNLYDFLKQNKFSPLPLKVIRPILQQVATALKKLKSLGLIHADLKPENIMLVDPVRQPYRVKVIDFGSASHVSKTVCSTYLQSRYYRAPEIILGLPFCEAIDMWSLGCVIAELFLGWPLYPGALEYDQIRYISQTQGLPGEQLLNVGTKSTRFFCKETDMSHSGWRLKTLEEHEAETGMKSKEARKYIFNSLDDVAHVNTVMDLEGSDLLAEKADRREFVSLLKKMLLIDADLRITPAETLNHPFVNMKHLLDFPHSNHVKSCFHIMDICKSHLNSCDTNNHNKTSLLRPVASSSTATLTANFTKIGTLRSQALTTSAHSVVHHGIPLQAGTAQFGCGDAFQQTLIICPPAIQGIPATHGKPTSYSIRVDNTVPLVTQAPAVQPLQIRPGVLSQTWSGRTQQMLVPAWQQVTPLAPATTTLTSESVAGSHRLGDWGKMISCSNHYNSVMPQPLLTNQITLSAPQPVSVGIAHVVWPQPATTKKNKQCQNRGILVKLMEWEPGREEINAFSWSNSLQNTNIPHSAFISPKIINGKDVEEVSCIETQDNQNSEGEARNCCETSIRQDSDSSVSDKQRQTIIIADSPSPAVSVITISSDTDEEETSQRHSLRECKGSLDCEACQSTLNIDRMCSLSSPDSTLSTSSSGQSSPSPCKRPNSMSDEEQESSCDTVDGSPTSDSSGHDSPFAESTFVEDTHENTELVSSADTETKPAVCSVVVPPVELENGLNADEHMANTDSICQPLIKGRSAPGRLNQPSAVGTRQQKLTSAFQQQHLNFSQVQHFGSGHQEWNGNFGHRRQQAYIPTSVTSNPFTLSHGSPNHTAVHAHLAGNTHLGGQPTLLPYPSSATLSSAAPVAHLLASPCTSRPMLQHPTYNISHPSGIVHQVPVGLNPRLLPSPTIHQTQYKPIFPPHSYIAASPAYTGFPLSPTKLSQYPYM
Calcium/calmodulin-dependent protein kinase type II subunit beta (Homo sapiens), sequence (Q13554 whole entry): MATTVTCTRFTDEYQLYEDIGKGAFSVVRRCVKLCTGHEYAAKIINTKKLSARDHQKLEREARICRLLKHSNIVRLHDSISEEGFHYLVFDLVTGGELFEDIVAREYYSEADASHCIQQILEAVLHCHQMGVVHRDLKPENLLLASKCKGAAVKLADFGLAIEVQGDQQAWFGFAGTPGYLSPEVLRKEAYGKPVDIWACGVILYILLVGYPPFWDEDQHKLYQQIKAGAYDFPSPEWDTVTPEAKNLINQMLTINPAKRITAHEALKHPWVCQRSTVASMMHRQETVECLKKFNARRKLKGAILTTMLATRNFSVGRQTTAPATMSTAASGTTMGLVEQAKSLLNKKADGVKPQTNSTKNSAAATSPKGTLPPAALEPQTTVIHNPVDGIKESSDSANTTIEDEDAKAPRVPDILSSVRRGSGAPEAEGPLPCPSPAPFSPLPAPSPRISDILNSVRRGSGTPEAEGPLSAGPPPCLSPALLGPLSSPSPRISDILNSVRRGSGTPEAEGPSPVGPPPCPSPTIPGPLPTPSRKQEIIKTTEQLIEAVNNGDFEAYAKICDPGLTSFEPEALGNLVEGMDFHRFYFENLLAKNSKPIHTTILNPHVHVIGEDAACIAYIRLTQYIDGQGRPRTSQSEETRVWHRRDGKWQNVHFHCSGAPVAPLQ
Serine/threonine-protein kinase PRP4 homolog (Homo sapiens), sequence (Q13523 whole entry): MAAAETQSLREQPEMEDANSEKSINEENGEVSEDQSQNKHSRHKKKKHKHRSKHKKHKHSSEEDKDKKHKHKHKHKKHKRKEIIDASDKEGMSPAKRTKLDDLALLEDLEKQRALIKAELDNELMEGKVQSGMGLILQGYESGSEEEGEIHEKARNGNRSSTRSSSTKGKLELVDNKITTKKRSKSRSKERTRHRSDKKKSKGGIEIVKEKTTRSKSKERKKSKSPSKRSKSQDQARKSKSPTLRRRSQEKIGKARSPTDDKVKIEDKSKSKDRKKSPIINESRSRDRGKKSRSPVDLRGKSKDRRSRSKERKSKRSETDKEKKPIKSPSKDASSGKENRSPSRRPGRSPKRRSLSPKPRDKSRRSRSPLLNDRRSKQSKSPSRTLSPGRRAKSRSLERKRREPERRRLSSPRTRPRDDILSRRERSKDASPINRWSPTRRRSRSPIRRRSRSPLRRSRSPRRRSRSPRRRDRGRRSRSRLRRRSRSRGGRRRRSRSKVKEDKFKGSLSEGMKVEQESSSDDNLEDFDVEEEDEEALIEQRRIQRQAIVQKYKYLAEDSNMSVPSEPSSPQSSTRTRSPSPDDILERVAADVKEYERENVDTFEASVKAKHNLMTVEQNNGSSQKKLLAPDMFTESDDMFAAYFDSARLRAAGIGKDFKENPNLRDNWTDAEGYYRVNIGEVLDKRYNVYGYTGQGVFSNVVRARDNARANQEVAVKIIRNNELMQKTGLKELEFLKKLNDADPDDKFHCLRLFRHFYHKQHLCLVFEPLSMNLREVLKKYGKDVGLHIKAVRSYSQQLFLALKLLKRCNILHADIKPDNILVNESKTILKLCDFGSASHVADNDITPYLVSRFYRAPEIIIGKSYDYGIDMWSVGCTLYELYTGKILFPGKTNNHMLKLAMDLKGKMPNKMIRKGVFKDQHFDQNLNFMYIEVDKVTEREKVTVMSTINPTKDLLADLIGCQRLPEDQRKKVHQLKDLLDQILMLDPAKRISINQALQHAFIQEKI
Beta-3 adrenergic receptor (Homo sapiens), sequence (P13945 whole entry, looked up): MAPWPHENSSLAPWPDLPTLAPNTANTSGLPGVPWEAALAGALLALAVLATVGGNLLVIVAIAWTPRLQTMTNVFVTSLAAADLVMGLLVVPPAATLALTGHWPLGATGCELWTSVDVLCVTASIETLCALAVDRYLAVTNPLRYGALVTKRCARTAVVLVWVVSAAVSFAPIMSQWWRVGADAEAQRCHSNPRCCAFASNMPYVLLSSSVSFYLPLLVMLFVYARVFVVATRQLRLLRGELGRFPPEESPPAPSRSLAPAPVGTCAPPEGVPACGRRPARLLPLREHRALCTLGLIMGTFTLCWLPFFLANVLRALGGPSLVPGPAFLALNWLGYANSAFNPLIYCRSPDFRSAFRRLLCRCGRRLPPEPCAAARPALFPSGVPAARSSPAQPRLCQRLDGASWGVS

On to `CC1=C(C#N)C(c2ccc3c(c2)c(NC(=O)c2ccccc2C)nn3C)C(C#N)=C(C)N1` [BAY-974], for which the results for the inhibition in experiment [1] and in experiment [2] were -3.33% and -1.23%, respectively.

Regarding `CCc1ccccc1C(=O)Nc1n[nH]c2c(C)c(F)c(C3C(C#N)=C(C)N(C)C(C)=C3C#N)cc12` [BAY-3827], the % residual kinase activity in experiment [3] is 100%; in [4] it was 92%; in [5], 91%; in experiment [6] it was 96%; in experiment [7] it was 88%; in experiment [8], 100%. Moreover, the % residual kinase activity in [9] is 100%; in experiment [10], 95%; in [11], 103%; in experiment [12], 39%; in [13], 55%; in experiment [14] it was 96%. The % residual kinase activity was 115% in experiment [15] and 106% in experiment [16]. Also, the “Cell Proliferation IC50” value is 12.1 µM with Ramos, 22.9 µM in the experiment on Daudi, more than 33 µM in the experiment on A2780 and 17.1 µM in the experiment with PANC-1.
